Test results as given in patent US20250002489A1, “BIFUNCTIONAL COMPOUNDS FOR DEGRADING ITK VIA UBIQUITIN PROTEOSOME PATHWAY” (NURIX THERAPEUTICS, INC., priority 2021, published 2025).

Target: T1, ITK (Jurkat or Molt4 cells) (Homo sapiens, UniProt Q08881)
T1 construct: either human Jurkat (Clone E6-1 ATCC TIB-152) or Motl4 (ATCC CRL-1552), were plated; endogenous in cells; host or cells: Jurkat Clone E6-1 (ATCC TIB-152) or Molt4 (ATCC CRL-1552)
T1 sequence (Q08881 1-620): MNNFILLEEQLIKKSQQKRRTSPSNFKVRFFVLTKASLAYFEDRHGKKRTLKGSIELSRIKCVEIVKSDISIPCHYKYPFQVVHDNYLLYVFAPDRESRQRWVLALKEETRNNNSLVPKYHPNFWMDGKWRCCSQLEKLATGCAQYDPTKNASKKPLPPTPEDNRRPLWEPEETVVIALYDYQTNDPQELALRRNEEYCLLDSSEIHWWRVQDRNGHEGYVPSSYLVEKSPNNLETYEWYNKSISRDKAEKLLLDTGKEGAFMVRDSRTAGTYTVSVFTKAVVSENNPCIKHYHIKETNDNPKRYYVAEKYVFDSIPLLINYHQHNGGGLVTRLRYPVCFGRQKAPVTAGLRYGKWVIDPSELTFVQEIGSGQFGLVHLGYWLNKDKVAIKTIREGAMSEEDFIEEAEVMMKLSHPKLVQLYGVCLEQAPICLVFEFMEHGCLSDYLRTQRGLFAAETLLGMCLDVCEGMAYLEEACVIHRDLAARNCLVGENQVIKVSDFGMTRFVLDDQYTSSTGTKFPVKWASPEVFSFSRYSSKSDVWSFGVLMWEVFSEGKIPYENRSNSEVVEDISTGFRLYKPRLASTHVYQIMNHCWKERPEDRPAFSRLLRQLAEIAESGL
Test: ITK Degradation MSD (Meso Scale Discovery) Assay
Type: cell-based
Settings: 4 or 6 hrs incubation; for DC50: best fit IC50 used as DC50
Procedure: Compound dilution series (7-point, 5-fold dilutions in DMSO, rows B—H with replicate in Column 1/2, 3/4, 5/6, 7, and 8 at 2000× the final required concentrations were prepared in 96-well plate (Falcon, cat. no. 353077). Row A, Column 1-8 were control DMSO. The 2000× solutions ranged from 2 mM to 128 nM (final assay concentration range 1 μM to […]). The 2000×solutions were added to cells in 10 μL volume, for a final DMSO concentration of 0.5% and final assay compound concentration of 1×. For the cells, either human Jurkat (Clone E6-1 ATCC TIB-152) or Motl4 (ATCC CRL-1552), were plated at 1×10^6 cells/mL, 100 μL/well ([…]) in complete RPMI (10% FBS, 1% L-glutamine). The cells were incubated with compounds 26-29 for 4 or 6 hrs at 32° C./6% CO2.
Following incubation, plates were centrifuged at 1200 rpm for 5 min. Supernatant was removed and 50 μL of cell lysis buffer (MSD Tris lysis buffer (R60TX), complete Mini EDTA-free protease inhibitor (Sigma 11836170001), Protease Inhibitor Cocktail (Sigma, P2714), Phosphatase Inhibitor Cocktail 2 and 3 (Sigma, P5726 and P0044), Benzonase (Sigma, E1014)) was added to each well. Plate was sealed and shook at 4° C. for 30 min. Plate was centrifuged and 45 μL was removed for plate assay.
Assay plate preparation: Meso Scale Discovery (MSD) multi-array sm spot 96-well plates (Goat anti-Rabbit L^45-RA), were blocked with 3% BSA blocking buffer (3% Bovine Serum Albumin (Sigma A3059)+TBS 0.2% Tween-20) for one hour with gentle rocking at room temperature. Plate was then washed with 200 μL of 1×TBST (TBS 0.2% Tween-20) three times. After the last wash, all liquid was removed and 50 μL per well of capture antibody (abcam ITK Y402-ab32507) was added to plate at a 1:1000 dilution in blocking buffer (see above). Plate was sealed and rocked at room temperature for 2 hrs. Plate was then washed three times with 200 μL of 1×TBST. After the last wash, all liquid was removed and 45 μL of cell lysate (from above) was added to plate. Plate was sealed and rocked overnight at 4° C. The next day, cell lysates were removed, and assay plate was washed three times with 200 μL of 1×TBST. After the last wash, liquid was removed and detection antibody (CST ITK (2F12) #2380) was added at 50 μL per well at a dilution of 1:1000 in blocking buffer. Plate was sealed and rocked at room temperature for 2 hrs. Plate was washed three times with 200 μL of 1×TBST. After the last wash, all liquid was removed, MSD […] sulfo tag (R32AC-1) was diluted to 1:1000 in blocking buffer. 50 μL was added to each well on the plate. Plate was sealed and incubated at room temperature for one hour. Plate was washed three times with 200 μL of 1×TBST. After last wash, all liquid was removed and 150 μL of 1×MSD Read Buffer T (R92PC) was then added to each well for ECL read out.
For reading ECL signal, plate was read on a Meso Scale Discovery (MSD) MESO Sector S 600 plate reader. Percent ITK was then calculated as described below.
Percent ITK remaining per sample was calculated as follows: […]
Using Graphpad Prism, % ITK remaining values were plotted as a function of compound concentration. To determine DC50 and Dmax values, resulting curves were fit to the Prism curve-fitting equation “log(inhibitor) vs response−Variable slope (four parameters)” (reported best fit value IC50 used as DC50).

Cc1ncsc1-c1ccc(CNC(=O)[C@@H]2C[C@@H](O)CN2C(=O)[C@@H](NC(=O)CCOCCOCCOCCOCCOCCOCCC(=O)N2CC([C@@H](c3ccccc3)n3cc(NC(=O)c4n[nH]c5c4C[C@@H]4C(F)(F)[C@]4(C)C5)cn3)C2)C(C)(C)C)cc1 [Compound 14, (4aS,5aR)-5,5-difluoro-N-(1-((S)-(1-((S)-24-((2S,4R)-4-hydroxy-2-((4-(4-methylthiazol-5-yl)benzyl)carbamoyl)pyrrolidine-1-carbonyl)-25,25-dimethyl-22-oxo-4,7,10,13,16,19-hexaoxa-23-azahexacosanoyl)azetidin-3-yl)(phenyl)methyl)-1H-pyrazol-4-yl)-5a-methyl-1,4,4a,5,5a,6-hexahydrocyclopropa[f]indazole-3-carboxamide]
DC50: 0.134 µM

CN[C@@H](C)C(=O)N[C@H](C(=O)N1CCC[C@H]1c1nc(C(=O)c2cccc(OCCOCCN3CC([C@@H](c4ccccc4)n4cc(NC(=O)c5n[nH]c6c5C[C@@H]5C(F)(F)[C@]5(C)C6)cn4)C3)c2)cs1)C1CCCCC1 [Compound 11, (4aS,5aR)—N-(1-((S)-(1-(2-(2-(3-(2-((S)-1-((S)-2-cyclohexyl-2-((S)-2-(methylamino)propanamido)acetyl)pyrrolidin-2-yl)thiazole-4-carbonyl)phenoxy)ethoxy)ethyl)azetidin-3-yl)(phenyl)methyl)-1H-pyrazol-4-yl)-5,5-difluoro-5a-methyl-1,4,4a,5,5a,6-hexahydrocyclopropa[f]indazole-3-carboxamide]
DC50: 0.0107 µM

Cc1ncsc1-c1ccc([C@H](C)NC(=O)[C@@H]2C[C@@H](O)CN2C(=O)[C@@H](NC(=O)CCOCCOCCC(=O)N2CC([C@@H](c3ccccc3)n3cc(NC(=O)c4n[nH]c5c4C[C@@H]4C(F)(F)[C@]4(C)C5)cn3)C2)C(C)(C)C)cc1 [Compound 30, (4aS,5aR)-5,5-difluoro-N-(1-((S)-(1-(3-(2-(3-(((S)-1-((2S,4R)-4-hydroxy-2-(((S)-1-(4-(4-methylthiazol-5-yl)phenyl)ethyl)carbamoyl)pyrrolidin-1-yl)-3,3-dimethyl-1-oxobutan-2-yl)amino)-3-oxopropoxy)ethoxy)propanoyl)azetidin-3-yl)(phenyl)methyl)-1H-pyrazol-4-yl)-5a-methyl-1,4,4a,5,5a,6-hexahydrocyclopropa[f]indazole-3-carboxamide]
Dmax: 86.3% | DC50: 0.0388 µM

Cc1ncsc1-c1ccc(CNC(=O)[C@@H]2C[C@@H](O)CN2C(=O)[C@@H](NC(=O)C2(F)CC2)C(C)(C)C)c(OCCOCCOCCOCCC(=O)N2CC([C@@H](c3ccccc3)n3cc(NC(=O)c4n[nH]c5c4C[C@@H]4C(F)(F)[C@]4(C)C5)cn3)C2)c1 [Compound 19, (4aS,5aR)-5,5-difluoro-N-(1-((S)-(1-(3-(2-(2-(2-(2-(((2S,4R)-1-((S)-2-(1-fluorocyclopropane-1-carboxamido)-3,3-dimethylbutanoyl)-4-hydroxypyrrolidine-2-carboxamido)methyl)-5-(4-methylthiazol-5-yl)phenoxy)ethoxy)ethoxy)ethoxy)propanoyl)azetidin-3-yl)(phenyl)methyl)-1H-pyrazol-4-yl)-5a-methyl-1,4,4a,5,5a,6-hexahydrocyclopropa[f]indazole-3-carboxamide]
Dmax: 95.9% | DC50: 0.0026 µM

Cc1ncsc1-c1ccc([C@H](C)NC(=O)[C@@H]2C[C@@H](O)CN2C(=O)[C@@H](NC(=O)c2ncc(N3CCC(C(=O)N4CC([C@@H](c5ccccc5)n5cc(NC(=O)c6n[nH]c7c6C[C@@H]6C(F)(F)[C@]6(C)C7)cn5)C4)CC3)cn2)C(C)(C)C)cc1 [Compound 21, (4aS,5aR)-5,5-difluoro-N-(1-((S)-(1-(1-(2-(((S)-1-((2S,4R)-4-hydroxy-2-(((S)-1-(4-(4-methylthiazol-5-yl)phenyl)ethyl)carbamoyl)pyrrolidin-1-yl)-3,3-dimethyl-1-oxobutan-2-yl)carbamoyl)pyrimidin-5-yl)piperidine-4-carbonyl)azetidin-3-yl)(phenyl)methyl)-1H-pyrazol-4-yl)-5a-methyl-1,4,4a,5,5a,6-hexahydrocyclopropa[f]indazole-3-carboxamide]
Dmax: 95% | DC50: 0.0647 µM

CN[C@@H](C)C(=O)N[C@H](C(=O)N1CCC[C@H]1c1nc(C(=O)c2cccc(OCCCCN3CC([C@@H](c4ccccc4)n4cc(NC(=O)c5n[nH]c6c5C[C@@H]5C(F)(F)[C@]5(C)C6)cn4)C3)c2)cs1)C1CCCCC1 [Compound 7, (4aS,5aR)—N-(1-((S)-(1-(4-(3-(2-((S)-1-((S)-2-cyclohexyl-2-((S)-2-(methylamino)propanamido)acetyl)pyrrolidin-2-yl)thiazole-4-carbonyl)phenoxy)butyl)azetidin-3-yl)(phenyl)methyl)-1H-pyrazol-4-yl)-5,5-difluoro-5a-methyl-1,4,4a,5,5a,6-hexahydrocyclopropa[f]indazole-3-carboxamide]
DC50: 0.00477 µM

Cc1ncsc1-c1ccc(CNC(=O)[C@@H]2C[C@@H](O)CN2C(=O)[C@@H](NC(=O)CCOCCC(=O)N2CC([C@@H](c3ccccc3)n3cc(NC(=O)c4n[nH]c5c4C[C@@H]4C(F)(F)[C@]4(C)C5)cn3)C2)C(C)(C)C)cc1 [Compound 16, (4aS,5aR)-5,5-difluoro-N-(1-((S)-(1-(3-(3-(((S)-1-((2S,4R)-4-hydroxy-2-((4-(4-methylthiazol-5-yl)benzyl)carbamoyl)pyrrolidin-1-yl)-3,3-dimethyl-1-oxobutan-2-yl)amino)-3-oxopropoxy)propanoyl)azetidin-3-yl)(phenyl)methyl)-1H-pyrazol-4-yl)-5a-methyl-1,4,4a,5,5a,6-hexahydrocyclopropafindazole-3-carboxamide]
DC50: 0.479 µM

CN[C@@H](C)C(=O)N[C@H](C(=O)N1CCC[C@H]1c1nc(C(=O)c2cccc(OCCCCCCN3CC([C@@H](c4ccccc4)n4cc(NC(=O)c5n[nH]c6c5C[C@@H]5C(F)(F)[C@]5(C)C6)cn4)C3)c2)cs1)C1CCCCC1 [Compound 9, (4aS,5aR)—N-(1-((S)-(1-(6-(3-(2-((S)-1-((S)-2-cyclohexyl-2-((S)-2-(methylamino)propanamido)acetyl)pyrrolidin-2-yl)thiazole-4-carbonyl)phenoxy)hexyl)azetidin-3-yl)(phenyl)methyl)-1H-pyrazol-4-yl)-5,5-difluoro-5a-methyl-1,4,4a,5,5a,6-hexahydrocyclopropa[f]indazole-3-carboxamide]
DC50: 0.0529 µM
